# Test results reported in PubChem BioAssay (NCI).
#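 Five compound concentrations were applied to cells in 96-well plates for 48 hours; endpoints were derived by simple linear interpolation of the resulting dose-response curve. GI50 marks 50% less growth. TGI denotes the concentration required for complete inhibition of growth.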 *1 amine or outer side, *2 acyl side, *3 side chain or, on linkers, in order; H or OH if unused. Where a SMILES comes first, the peptide text is derived from it. The star is where a group is joined. γGlu = O=C(O)[CH](CCC(=O)[*:2])N[*:1]; Cbz = O=C(OCc1ccccc1)*; NHOH = ON*
# Columns and labels:
# Test in all cases: growth of human tumour cells (NCI), 48 h
# [1] = tested on: UACC-257 melanoma
# [2] = tested on: SW-620 colon
# [3] = tested on: OVCAR-4 ovarian
# [4] = tested on: ACHN renal
# [5] = tested on: NCI-H23 lung
# [6] = tested on: K-562 leukemia
# [7] = tested on: PC-3 prostate
# [8] = tested on: HL-60(TB) leukemia
# [9] = tested on: SF-295 CNS
# [10] = tested on: HS 578T breast
smiles,measurement,setting,value
CCOC(=O)CCC(NC(=O)C(CC(=O)OC)NC(=O)OCc1ccccc1)C(=O)NC(CC(=O)OC)C(=O)NC(CCC(=O)OCC)C(=O)NC(CC(=O)OC)C(=O)NC(CCC(=O)OCC)C(=O)NC(CC(=O)OCC)C(=O)OCC (configuration not stated) (Cbz-D(OMe)E(OEt)D(OMe)E(OEt)D(OMe)E(OEt)D(OEt)-OEt; configuration not given here),TGI,[1],> 100 µM
same,TGI,[2],> 100 µM
same,TGI,[3],> 100 µM
same,TGI,[4],> 100 µM
same,TGI,[5],> 100 µM
same,TGI,[6],> 100 µM
same,TGI,[7],> 100 µM
same,TGI,[8],> 100 µM
Cc1cnoc1/N=C1\C=C(Nc2oncc2C)C(=O)c2ccccc21,TGI,[1],> 100 µM
same,TGI,[9],> 100 µM
same,TGI,[2],> 100 µM
same,TGI,[3],> 100 µM
same,TGI,[4],> 100 µM
same,TGI,[5],> 100 µM
same,TGI,[6],> 100 µM
same,TGI,[8],> 100 µM
CC(C)NC1CCCCC2c3ccccc3C12O (configuration not stated),TGI,[1],> 100 µM
same,TGI,[9],> 100 µM
same,TGI,[2],> 100 µM
same,TGI,[3],> 100 µM
same,TGI,[4],> 100 µM
same,TGI,[5],> 100 µM
same,TGI,[6],> 100 µM
same,TGI,[8],> 100 µM
COc1ccc(/C=C2\C(=O)N(C(=O)c3ccc(NC(C)=O)cc3)N=C2C)cc1OC,TGI,[1],> 100 µM
same,TGI,[9],> 100 µM
same,TGI,[2],> 100 µM
same,TGI,[3],> 100 µM
same,TGI,[4],> 100 µM
same,TGI,[5],> 100 µM
same,TGI,[6],> 100 µM
same,TGI,[8],> 100 µM
CN1CCN(c2n[nH]c(=O)c3c2nnn3Cc2ccccc2)CC1,TGI,[1],> 100 µM
same,TGI,[9],> 100 µM
same,TGI,[3],> 100 µM
same,TGI,[4],> 100 µM
same,TGI,[5],> 100 µM
same,TGI,[6],> 100 µM
same,TGI,[7],37.1 µM
same,TGI,[8],> 100 µM
NC(CCC(=O)NC(CCC(=O)NO)C(=O)NCC(=O)O)C(=O)O (configuration not stated) (γGlu-Glu(NHOH)-Gly-OH; configuration not given here),TGI,[1],> 100 µM
same,TGI,[9],> 100 µM
same,TGI,[2],> 100 µM
same,TGI,[3],> 100 µM
same,TGI,[4],> 100 µM
same,TGI,[5],> 100 µM
same,TGI,[6],> 100 µM
same,TGI,[7],> 100 µM
same,TGI,[8],> 100 µM
CN(C(=O)Cc1cc(Cl)c(Cl)cc1NC(=O)CCCN)[C@H]1CCCC[C@@H]1N1CCCC1,TGI,[1],33.3 µM
same,TGI,[9],> 100 µM
same,TGI,[2],91.2 µM
same,TGI,[3],> 100 µM
same,TGI,[4],> 100 µM
same,TGI,[5],> 100 µM
same,TGI,[6],> 100 µM
same,TGI,[7],> 100 µM
same,TGI,[8],52.8 µM
NCC(=O)N[C@H]1c2ccsc2/C(=N/O)[C@H]1O,TGI,[1],> 100 µM
same,TGI,[9],> 100 µM
same,TGI,[2],> 100 µM
same,TGI,[3],> 100 µM
same,TGI,[5],> 100 µM
same,TGI,[6],> 100 µM
same,TGI,[7],> 100 µM
same,TGI,[8],> 100 µM
C#CCOC(=O)C=[N+]=[N-],TGI,[1],> 10 µM
same,TGI,[9],> 10 µM
same,TGI,[2],> 10 µM
same,TGI,[4],> 10 µM
same,TGI,[5],> 10 µM
same,TGI,[6],> 10 µM
same,TGI,[7],> 10 µM
same,TGI,[8],> 10 µM
CCOC(=O)c1ccc(N2C(=O)/C(=C/c3ccc(N(CCC#N)CCC#N)cc3)N=C2c2cc([N+](=O)[O-])ccc2Cl)cc1,TGI,[9],> 100 µM
same,TGI,[2],> 100 µM
same,TGI,[3],> 100 µM
same,TGI,[4],> 100 µM
same,TGI,[5],> 100 µM
same,TGI,[6],> 100 µM
COc1ccccc1C1C(C#N)=C(N)SC(N)=C1C#N,GI50,[1],> 100 µM
same,TGI,[1],> 100 µM
same,GI50,[10],> 100 µM
same,TGI,[10],> 100 µM
same,GI50,[9],67 µM
same,TGI,[9],> 100 µM
same,GI50,[2],> 100 µM
same,TGI,[2],> 100 µM
same,GI50,[3],81.1 µM
same,TGI,[3],> 100 µM
same,GI50,[4],65.1 µM
same,TGI,[4],> 100 µM
same,GI50,[5],97 µM
same,TGI,[5],> 100 µM
same,GI50,[6],41.8 µM
same,TGI,[6],> 100 µM
same,GI50,[8],50.3 µM
same,TGI,[8],> 100 µM
CC(C)C(Sc1nc(-c2ccccc2)c(-c2ccccc2)[nH]1)C(=O)N/N=C/c1ccc(Cl)cc1 (configuration not stated),TGI,[1],53.7 µM
same,TGI,[9],47.5 µM
same,TGI,[2],68.2 µM
same,TGI,[3],98.4 µM
same,TGI,[4],> 100 µM
same,TGI,[5],52.8 µM
same,TGI,[8],56.6 µM
CCOC(=O)c1nc2ccccc2nc1Nc1cc(OC)c(OC)c(OC)c1,TGI,[10],> 100 µM
same,TGI,[9],> 100 µM
same,TGI,[3],> 100 µM
same,TGI,[4],> 100 µM
same,TGI,[5],> 100 µM
same,TGI,[6],> 100 µM
same,TGI,[8],> 100 µM
COC(=O)C12C(=O)CC3CCC1C32C(=O)OC (configuration not stated),TGI,[1],> 100 µM
same,TGI,[9],> 100 µM
same,TGI,[2],> 100 µM
same,TGI,[3],> 100 µM
same,TGI,[4],> 100 µM
same,TGI,[5],> 100 µM
same,TGI,[6],> 100 µM
same,TGI,[7],> 100 µM
Cn1c2ccccc2n2c(=O)c(-c3ccc(Cl)cc3)nnc12,TGI,[1],> 100 µM
same,TGI,[10],> 100 µM
same,TGI,[9],> 100 µM
same,TGI,[2],> 100 µM
same,TGI,[3],> 100 µM
same,TGI,[4],> 100 µM
same,TGI,[5],> 100 µM
same,TGI,[8],> 100 µM
COC1CCC(O)C(CO)O1 (configuration not stated),TGI,[1],> 100 µM
same,TGI,[9],> 100 µM
same,TGI,[2],> 100 µM
same,TGI,[3],> 100 µM
same,TGI,[4],> 100 µM
same,TGI,[5],> 100 µM
same,TGI,[6],47.6 µM
same,TGI,[8],87 µM
CCOc1cc2c(cc1OC)c[n+](C)c1c3cc(OC)c(OC)cc3ccc21,TGI,[1],> 100 µM
same,TGI,[9],> 100 µM
same,TGI,[2],> 93.5 µM
same,TGI,[3],> 100 µM
same,TGI,[4],> 100 µM
same,TGI,[5],> 100 µM
same,TGI,[6],> 49 µM
same,TGI,[8],32.2 µM
COC(=O)C1=C(C(=O)OC)C23CC4CCC2(C(=O)C1O3)C4(C)C (configuration not stated),TGI,[1],> 100 µM
same,TGI,[9],> 100 µM
same,TGI,[2],> 100 µM
same,TGI,[3],> 100 µM
same,TGI,[4],> 100 µM
same,TGI,[5],> 100 µM
same,TGI,[6],> 100 µM
same,TGI,[8],52.6 µM
